# Measurements published in the supplement of paper PMC10307832.
# Experiments:
# Experiment in all cases: relative viability (nuclei count vs DMSO), 5 days (fraction); higher = more cells survive
# Sorafenib + Palbociclib = compound: CNC(=O)c1cc(Oc2ccc(NC(=O)Nc3ccc(Cl)c(C(F)(F)F)c3)cc2)ccn1 [Sorafenib] + CC(=O)c1c(C)c2cnc(Nc3ccc(N4CCNCC4)cn3)nc2n(C2CCCC2)c1=O [Palbociclib] (partner 0.5 µM)
# How it was run: (§1)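 A single step with final 0.05% Triton X-100, 1% formaldehyde and 1 ug/ml Hoechst fixed the cells and stained nuclei 5 days after treatment. Lung cancer cell lines in 1536-well plates had been treated by pin tool the day after seeding with one drug alone or a fixed anchor-drug dose plus five library-drug doses (not always all listed) in √10 steps, and nuclei were counted on 4× images. Relative viability is the ratio of nuclei in treated wells to nuclei in vehicle wells, taken as the median of duplicate plates.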
# Sorafenib + Linsitinib = compound: CNC(=O)c1cc(Oc2ccc(NC(=O)Nc3ccc(Cl)c(C(F)(F)F)c3)cc2)ccn1 [Sorafenib] + C[C@]1(O)C[C@@H](c2nc(-c3ccc4ccc(-c5ccccc5)nc4c3)c3c(N)nccn32)C1 [Linsitinib] (partner 1 µM)
# How it was run: as §1
# Sorafenib + Crizotinib = compound: CNC(=O)c1cc(Oc2ccc(NC(=O)Nc3ccc(Cl)c(C(F)(F)F)c3)cc2)ccn1 [Sorafenib] + C[C@@H](Oc1cc(-c2cnn(C3CCNCC3)c2)cnc1N)c1c(Cl)ccc(F)c1Cl [Crizotinib] (partner 1 µM)
# How it was run: as §1
# Sorafenib + AZD7762 = compound: CNC(=O)c1cc(Oc2ccc(NC(=O)Nc3ccc(Cl)c(C(F)(F)F)c3)cc2)ccn1 [Sorafenib] + NC(=O)Nc1cc(-c2cccc(F)c2)sc1C(=O)N[C@H]1CCCNC1 [AZD7762] (partner 0.2 µM)
# How it was run: as §1
# Sorafenib + Pemetrexed = compound: CNC(=O)c1cc(Oc2ccc(NC(=O)Nc3ccc(Cl)c(C(F)(F)F)c3)cc2)ccn1 [Sorafenib] + Nc1nc2[nH]cc(CCc3ccc(C(=O)N[C@@H](CCC(=O)O)C(=O)O)cc3)c2c(=O)[nH]1 [Pemetrexed] (partner 0.2 µM)
# How it was run: as §1
Cell Line,relative viability (Sorafenib + Palbociclib; first compound 0.08 µM),relative viability (Sorafenib + Palbociclib; first compound 0.253 µM),relative viability (Sorafenib + Palbociclib; first compound 2.53 µM),relative viability (Sorafenib + Palbociclib; first compound 8 µM),relative viability (Sorafenib + Linsitinib; first compound 0.08 µM),relative viability (Sorafenib + Linsitinib; first compound 0.253 µM),relative viability (Sorafenib + Linsitinib; first compound 2.53 µM),relative viability (Sorafenib + Linsitinib; first compound 8 µM),relative viability (Sorafenib + Crizotinib; first compound 0.08 µM),relative viability (Sorafenib + Crizotinib; first compound 0.253 µM),relative viability (Sorafenib + Crizotinib; first compound 2.53 µM),relative viability (Sorafenib + Crizotinib; first compound 8 µM),relative viability (Sorafenib + AZD7762; first compound 0.08 µM),relative viability (Sorafenib + AZD7762; first compound 0.253 µM),relative viability (Sorafenib + AZD7762; first compound 2.53 µM),relative viability (Sorafenib + AZD7762; first compound 8 µM),relative viability (Sorafenib + Pemetrexed; first compound 0.08 µM),relative viability (Sorafenib + Pemetrexed; first compound 0.253 µM),relative viability (Sorafenib + Pemetrexed; first compound 2.53 µM),relative viability (Sorafenib + Pemetrexed; first compound 8 µM)
NCI-H3122,0.204,0.2,0.177,0.18,1.06,1.02,1.01,0.828,0.29,0.317,0.326,0.293,0.905,0.905,1.08,0.965,0.209,0.194,0.222,0.167
PC-3 [JPC-3],0.522,0.552,0.576,0.606,0.951,0.981,1.01,0.949,0.978,0.957,0.985,–,0.929,0.711,1.07,0.948,1.11,0.856,1.34,1.2
PC-14,0.62,0.512,0.518,0.158,1.03,0.96,0.918,0.756,0.935,1,0.967,0.533,0.365,0.256,0.444,0.303,0.133,0.137,0.123,0.102
RERF-LC-KJ,1.05,0.961,1.03,0.759,0.873,0.872,0.798,0.739,0.885,0.798,0.856,0.768,1.09,0.781,0.941,0.897,0.485,0.458,0.524,0.417
